# pEC50: −log10 of the molar value. Numbered stars: 1 amine (or outer) side, 2 acyl side, 3 side chain; on linkers, the order of the positions; unused ones are H or OH. Square brackets hold non-standard residues; d marks the D form. Peptide text beside a SMILES is read from it. * marks the point of attachment. Pro(4R-NH2) = N[C@H]1CN[C@H](C(=O)O)C1; X2 = O=C([C@H]1CCCN([*:1])C1)[*:2]; dDap(Me2) = CN(C)C[C@@H](N)C(=O)O; Hyp = O=C(O)[C@@H]1C[C@@H](O)CN1; NHcycloheptyl = C1CCCC(N*)CC1; NMeL = CN[C@@H](CC(C)C)C(=O)O; Octanoyl = CCCCCCCC(=O)*; Api = NC1(C(=O)O)CCNCC1
# Experiments:
# [1] = system: human colon adenocarcinoma cells; conditions: 1 mM ANP, within 24 h; cited from earlier work
# rabbit eyes = experiment: Efficacy in the rabbit: intraocular pressure (IOP) after a single topical ocular drop; type: in vivo; conditions: dose 300 ug topical ocular, single 30 μL drop, up to 4 hr post dose, 1% as suspension (+) or solution (++) per mark on label
# Description: A single 30 μL drop of a test item formulation was administered to rabbit eyes (n=8 to 10).
# Intraocular pressure (IOP) was assessed in each eye at 0 hr, just prior to dosing, and again hourly for up to 4 hr post dose. The efficacy of a given formulation was determined based on the difference between the pretreatment TOP readings at 0 hr and the post treatment readings. A maximum percent reduction in IOP greater than 15% was noted by the “+” symbol. A maximum IOP reduction of less than 15% was assigned the “−” symbol.
# NPR-B = target: T1, NPR-B (Homo sapiens, UniProt P20594); experiment: NPR-B induced production of cyclic GMP in human glaucoma trabecular meshwork cells (GTM-3); type: cell-based; conditions: group by EC50 and Emax (CNP = 100%); Table 4; read-out: Activity (group), NPR-B activation assayed with GTM-3 cells
# T1 construct: a functional assay using endogenously NPR-B expressing GTM-3 cells; endogenous in cells; host or cells: GTM-3 (human glaucoma trabecular meshwork cells)
# T1 sequence (P20594 23-1047): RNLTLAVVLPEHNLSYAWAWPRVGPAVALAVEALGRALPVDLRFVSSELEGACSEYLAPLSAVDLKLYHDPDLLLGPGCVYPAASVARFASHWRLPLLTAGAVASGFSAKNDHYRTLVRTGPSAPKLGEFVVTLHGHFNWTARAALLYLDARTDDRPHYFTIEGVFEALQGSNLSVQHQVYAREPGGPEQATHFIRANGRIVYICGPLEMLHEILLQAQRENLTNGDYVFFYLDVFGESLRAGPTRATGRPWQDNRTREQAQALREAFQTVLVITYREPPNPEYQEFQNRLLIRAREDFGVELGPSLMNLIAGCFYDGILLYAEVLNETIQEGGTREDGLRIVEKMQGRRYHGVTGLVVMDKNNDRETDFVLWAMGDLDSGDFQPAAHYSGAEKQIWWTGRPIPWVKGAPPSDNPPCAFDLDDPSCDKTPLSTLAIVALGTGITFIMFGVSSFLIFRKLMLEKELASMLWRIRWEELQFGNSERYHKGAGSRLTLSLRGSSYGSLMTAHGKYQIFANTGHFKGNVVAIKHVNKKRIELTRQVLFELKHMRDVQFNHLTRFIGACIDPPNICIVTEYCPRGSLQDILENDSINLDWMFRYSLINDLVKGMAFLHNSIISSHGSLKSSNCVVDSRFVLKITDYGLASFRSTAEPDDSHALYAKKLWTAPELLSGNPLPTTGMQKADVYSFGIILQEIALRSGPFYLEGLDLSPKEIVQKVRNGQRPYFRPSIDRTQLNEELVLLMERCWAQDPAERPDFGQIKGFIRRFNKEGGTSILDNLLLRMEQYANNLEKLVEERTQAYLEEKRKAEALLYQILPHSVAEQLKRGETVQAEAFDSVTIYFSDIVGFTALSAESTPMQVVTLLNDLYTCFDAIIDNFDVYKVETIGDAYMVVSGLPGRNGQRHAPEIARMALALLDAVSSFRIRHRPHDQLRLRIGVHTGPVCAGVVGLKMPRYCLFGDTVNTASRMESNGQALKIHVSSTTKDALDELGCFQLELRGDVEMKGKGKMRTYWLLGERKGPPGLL
SMILES,pEC50 (NPR-B),decrease in cell number [1],"RIOP, maximum percent reduction in IOP (rabbit eyes)"
"CC[C@H](C)[C@@H]1NC(=O)[C@H](CCCNC(=N)N)NC(=O)[C@H](CC(=O)O)NC(=O)[C@H](CCSC)NC(=O)[C@H](CCCNC(=N)N)NC(=O)CNC(=O)CNC(=O)[C@H](Cc2ccccc2)NC(=O)[C@@H](NC(=O)[C@H](CO)NC(=O)[C@H](CO)NC(=O)[C@H](CCCNC(=N)N)NC(=O)[C@H](CCCNC(=N)N)NC(=O)[C@H](CC(C)C)NC(=O)[C@@H](N)CO)CSSC[C@@H](C(=O)N[C@@H](CC(N)=O)C(=O)N[C@@H](CO)C(=O)N[C@@H](Cc2ccccc2)C(=O)N[C@@H](CCCNC(=N)N)C(=O)N[C@@H](Cc2ccc(O)cc2)C(=O)O)NC(=O)CNC(=O)[C@H](CC(C)C)NC(=O)CNC(=O)[C@H](CO)NC(=O)[C@H](CCC(N)=O)NC(=O)[C@H](C)NC(=O)CNC1=O [ANP, atrial natriuretic peptide]",–,up to 97%,–
"CCCCCCCC(=O)N1CCC[C@H](C(=O)N[C@@H](Cc2ccccc2)C(=O)N[C@H](CC(C)C)C(=O)N[C@@H](CC(C)C)C(=O)N2C[C@H](O)C[C@H]2C(=O)N(C)[C@@H](CC(C)C)C(=O)N[C@@H](CC(=O)O)C(=O)N[C@@H](CCCNC(=N)N)C(=O)N[C@H](C(N)=O)[C@@H](C)CC)C1 [JAL-1041, Occ-Sni-Phe-leu-Leu-Hyp-Nml-Asp-Arg-Ile-NH2] (HELM PEPTIDE1{[CCCCCCCC(=O)[*:2]].[O=C([C@H]1CCCN([*:1])C1)[*:2]].F.[dL].L.[Hyp].[meL].D.R.I.[am]}$$$$V2.0)",> 6.00,–,+ (+ IOP reduction >15%)
"CCCCCCCC(=O)N1CCC[C@H](C(=O)N[C@@H](Cc2ccccc2)C(=O)N[C@H](CN(C)C)C(=O)N[C@@H](CC(C)C)C(=O)N2C[C@H](O)C[C@H]2C(=O)N(C)[C@@H](CC(C)C)C(=O)N[C@@H](CC(=O)O)C(=O)N[C@@H](CCCNC(=N)N)C(=O)N[C@H](C(N)=O)[C@@H](C)CC)C1 [JAL-1287, Occ-Sni-Phe-dap(Me2)-Leu-Hyp-Nml-Asp-Arg-Ile-NH2] (Octanoyl-[X2]F[dDap(Me2)]L[Hyp][NMeL]DRI-NH2)",> 6.00,–,+ (+ IOP reduction >15%)
"CCCCCCCC(=O)N1CCC[C@H](C(=O)N[C@@H](Cc2ccccc2)C(=O)N[C@H](CC(C)C)C(=O)N[C@@H](CC(C)C)C(=O)N2C[C@H](N)C[C@H]2C(=O)N(C)[C@@H](CC(C)C)C(=O)N[C@H](C(=O)N[C@@H](CCCNC(=N)N)C(=O)NC2CCCCCC2)C(C)C)C1 [JAL-1729, Occ-Sni-Phe-leu-Leu-Tap-Nml-Val-Arg-Che] (Octanoyl-[X2]F[dL]L[Pro(4R-NH2)][NMeL]VR-NHcycloheptyl)",> 6.00,–,+ (+ IOP reduction >15%)
"CCCCCCCC(=O)N1CCC[C@H](C(=O)N[C@@H](Cc2ccccc2)C(=O)N[C@H](CC(C)C)C(=O)N[C@@H](CC(C)C)C(=O)N2C[C@H](N)C[C@H]2C(=O)N(C)[C@@H](CC(C)C)C(=O)N[C@H](C(=O)N2CCC[C@H]2C(=O)NC2CCCCCC2)C(C)C)C1 [JAL-1654, Occ-Sni-Phe-leu-Leu-Tap-Nml-Val-Pro-Che] (Octanoyl-[X2]F[dL]L[Pro(4R-NH2)][NMeL]VP-NHcycloheptyl)",> 6.00,–,− (− IOP reduction <15%)
"CCCCCCCC(=O)N1CCC[C@H](C(=O)N[C@@H](Cc2ccccc2)C(=O)N[C@H](CN(C)C)C(=O)N[C@@H](CC(C)C)C(=O)N2C[C@H](N)C[C@H]2C(=O)N(C)[C@@H](CC(C)C)C(=O)N[C@@H](CC(=O)O)C(=O)N[C@@H](CCCNC(=N)N)C(=O)N[C@H](C(N)=O)[C@@H](C)CC)C1 [JAL-1325, Occ-Sni-Phe-dap(Me2)-Leu-Tap-Nml-Asp-Arg-Ile-NH2] (Octanoyl-[X2]F[dDap(Me2)]L[Pro(4R-NH2)][NMeL]DRI-NH2)",> 6.00,–,+ (+ IOP reduction >15%)

# Continued, in another order:
pEC50 (NPR-B),SMILES,decrease in cell number [1],"RIOP, maximum percent reduction in IOP (rabbit eyes)"
> 6.00,"CCCCCCCC(=O)N1CCC[C@H](C(=O)N[C@@H](Cc2ccccc2)C(=O)NC2(C(=O)N[C@@H](CC(C)C)C(=O)N3C[C@H](O)C[C@H]3C(=O)N(C)[C@@H](CC(C)C)C(=O)N[C@@H](CC(=O)O)C(=O)N[C@@H](CCCNC(=N)N)C(=O)N[C@H](C(N)=O)[C@@H](C)CC)CCNCC2)C1 [JAL-1555, Occ-Sni-Phe-Apc-Leu-Hyp-Nml-Asp-Arg-Ile-NH2] (Octanoyl-[X2]F[Api]L[Hyp][NMeL]DRI-NH2)",–,+ (+ IOP reduction >15%)
> 6.00,"CCCCCCCC(=O)N[C@H](C)C(=O)N[C@@H](Cc1ccccc1)C(=O)N[C@H](CCCNC(=N)N)C(=O)N[C@@H](CC(C)C)C(=O)N1C[C@H](O)C[C@H]1C(=O)N[C@@H](CC(C)C)C(=O)N[C@@H](CC(=O)O)C(=O)N[C@@H](CCCNC(=N)N)C(=O)N[C@H](C(N)=O)[C@@H](C)CC [JAL-1047, Occ-ala-Phe-arg-Leu-Hyp-Leu-Asp-Arg-Ile-NH2] (HELM PEPTIDE1{[CCCCCCCC(=O)[*:2]].[dA].F.[dR].L.[Hyp].L.D.R.I.[am]}$$$$V2.0)",–,+ (+ IOP reduction >15%)
> 6.00,"CCCCCCCC(=O)N[C@H](C)C(=O)N[C@@H](Cc1ccccc1)C(=O)N[C@H](CCCNC(=N)N)C(=O)N[C@@H](CC(C)C)C(=O)N1C[C@H](O)C[C@H]1C(=O)N(C)[C@@H](CC(C)C)C(=O)N[C@@H](CC(=O)O)C(=O)N[C@@H](CCCNC(=N)N)C(=O)N[C@H](C(N)=O)[C@@H](C)CC [JAL-1086, Occ-ala-Phe-arg-Leu-Hyp-Nml-Asp-Arg-Ile-NH2] (HELM PEPTIDE1{[CCCCCCCC(=O)[*:2]].[dA].F.[dR].L.[Hyp].[meL].D.R.I.[am]}$$$$V2.0)",–,+ (+ IOP reduction >15%)
> 6.00,"CCCCCCCC(=O)N[C@H](C)C(=O)N(C)[C@@H](Cc1ccccc1)C(=O)N[C@H](CCCNC(=N)N)C(=O)N[C@@H](CC(C)C)C(=O)N1C[C@H](O)C[C@H]1C(=O)N(C)[C@@H](CC(C)C)C(=O)N[C@@H](CC(=O)O)C(=O)N[C@@H](CCCNC(=N)N)C(=O)N[C@H](C(N)=O)[C@@H](C)CC [JAL-1085, Occ-ala-Nmf-arg-Leu-Hyp-Nml-Asp-Arg-Ile-NH2] (HELM PEPTIDE1{[CCCCCCCC(=O)[*:2]].[dA].[meF].[dR].L.[Hyp].[meL].D.R.I.[am]}$$$$V2.0)",–,+ (+ IOP reduction >15%)
> 6.00,"CCCCCCCC(=O)N[C@H](C)C(=O)N[C@@H](Cc1ccccc1)C(=O)N[C@H](CCCCN)C(=O)N[C@@H](CC(C)C)C(=O)N1C[C@H](O)C[C@H]1C(=O)N(C)[C@@H](CC(C)C)C(=O)N[C@@H](CC(=O)O)C(=O)N[C@@H](CCCNC(=N)N)C(=O)N[C@H](C(N)=O)[C@@H](C)CC [JAL-1060, Occ-ala-Phe-lys-Leu-Hyp-Nml-Asp-Arg-Ile-NH2] (HELM PEPTIDE1{[CCCCCCCC(=O)[*:2]].[dA].F.[dK].L.[Hyp].[meL].D.R.I.[am]}$$$$V2.0)",–,+ (+ IOP reduction >15%)
> 6.00,"CCCCCCCC(=O)N1CCC[C@H](C(=O)N[C@@H](Cc2ccccc2)C(=O)N[C@H](CC(C)C)C(=O)N[C@@H](CC(C)C)C(=O)N2C[C@H](O)C[C@H]2C(=O)N(C)[C@@H](CC(C)C)C(=O)N[C@@H](CC(=O)O)C(=O)N2CCC[C@H]2C(=O)NC2CCCCCC2)C1 [JAL-1512_02, Occ-Sni-Phe-leu-Leu-Hyp-Nml-Asp-Pro-Che] (Octanoyl-[X2]F[dL]L[Hyp][NMeL]DP-NHcycloheptyl)",–,+ (+ IOP reduction >15%)

# Source: patent US9822147B2, “Methods of treating ophthalmic diseases using NPR-B agonists” (priority 2009, dated 2017)
